In patent publication US10364256B2 (GlaxoSmithKline Intellectual Property Development Limited, priority 2015, dated 2019) one finds IC50 data, which are given here for 17 compounds.

Experiment [1] concerns the target T1, full length Keap1 protein / full length NRF2 protein (Homo sapiens, UniProt Q14145).
T1 construct: full length NRF2 protein and full length Keap1 protein (Keap1 exists a dimer) are used; His
As to the kind of experiment: NRF2-Keap1 TR-FRET Assay. In kind it is binding. The following applies: 25 nM Keap1-FlagHis and 50 nM biotin-NRF2 added. The method, boiled down:
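Displacement of biotinylated full-length NRF2 from full-length Keap1 read by Eu/APC TR-FRET (665/615 nm) after 1 h detection at RT. Compound, 3-fold series, first incubated with Keap1 at 37 °C for 2.25 h, NRF2 then added at 4 °C for 1.25 h; pIC50 by four-parameter equation.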
(TR-FRET usually uses a lanthanide donor and a delayed reading to cut background.)

In experiment [2] the target is T2, Keap1 Kelch domain (321-609) / TAMRA-labeled 16mer NRF2 peptide (ETGE motif) (Homo sapiens, UniProt Q14145).
T2 construct: the Kelch domain (321-609) of Keap1 is used
As to the kind of experiment: NRF2-Keap1 FP Assay (Keap1 Kelch fluorescence polarization). The class given is binding. The note with it: 20 nM Keap1 (321-609), 8 nM Tamra labeled peptide. The method, boiled down: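 Compound dilutions (3-fold) were incubated 1 hr at room temperature with 20 nM Keap1 Kelch (321-609) and 8 nM TAMRA-labeled ETGE 16mer peptide. Buffer was 50 mM Tris pH 8.0, 100 mM NaCl, 5 mM MgCl2, 1 mM DTT, 2 mM CHAPS, 0.005% BSA. Fluorescence polarization (mP) was normalized to controls and fitted with a four-parameter equation to give pIC50.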
In general terms: In fluorescence polarisation assays a small probe gives low polarisation when free and higher when bound to something large.

T1 sequence (Q14145 whole entry): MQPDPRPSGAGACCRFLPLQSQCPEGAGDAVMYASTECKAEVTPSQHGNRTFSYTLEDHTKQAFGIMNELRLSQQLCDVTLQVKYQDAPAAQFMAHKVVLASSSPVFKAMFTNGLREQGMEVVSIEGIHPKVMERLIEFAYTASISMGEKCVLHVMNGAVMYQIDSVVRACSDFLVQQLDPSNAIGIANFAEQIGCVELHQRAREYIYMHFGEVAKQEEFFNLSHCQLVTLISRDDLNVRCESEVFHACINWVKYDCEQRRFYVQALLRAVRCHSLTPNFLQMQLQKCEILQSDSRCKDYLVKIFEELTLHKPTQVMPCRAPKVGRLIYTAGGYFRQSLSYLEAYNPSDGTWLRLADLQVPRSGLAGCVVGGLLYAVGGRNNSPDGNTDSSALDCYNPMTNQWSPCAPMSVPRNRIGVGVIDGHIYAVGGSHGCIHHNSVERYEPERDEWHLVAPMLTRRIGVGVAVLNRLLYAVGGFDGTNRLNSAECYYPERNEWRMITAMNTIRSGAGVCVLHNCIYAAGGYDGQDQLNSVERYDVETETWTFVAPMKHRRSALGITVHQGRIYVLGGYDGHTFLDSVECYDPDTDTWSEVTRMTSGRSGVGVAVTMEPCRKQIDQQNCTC
T2 sequence (Q14145 321-609): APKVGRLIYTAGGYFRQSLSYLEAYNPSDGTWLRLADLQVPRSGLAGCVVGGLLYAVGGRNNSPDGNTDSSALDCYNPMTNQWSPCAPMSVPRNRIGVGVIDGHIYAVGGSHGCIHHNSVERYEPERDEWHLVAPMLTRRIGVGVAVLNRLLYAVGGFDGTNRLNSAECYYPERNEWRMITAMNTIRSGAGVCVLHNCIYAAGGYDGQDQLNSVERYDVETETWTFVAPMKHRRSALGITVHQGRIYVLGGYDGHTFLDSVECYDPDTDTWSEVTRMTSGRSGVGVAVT

As a reminder, the IC50 is the concentration that inhibits the measured activity by half. For the compound `Cn1cc(C2CC2c2c(C(=O)O)cnn2-c2cccc(-c3cccc(OCC4CCN(C(=O)OC(C)(C)C)CC4)c3)c2)nn1` (stereo not shown) [Example 167, 1-(3′-((1-(tert-Butoxycarbonyl)piperidin-4-yl)methoxy)-[1,1′-biphenyl]-3-yl)-5-(2-(1-methyl-1H-1,2,3-triazol-4-yl)cyclopropyl)-1H-pyrazole-4-carboxylic acid], the IC50 is 100 to 1000 nM in experiment [1] and 10 to 100 nM in experiment [2].
Consider `CCCC1(C)CCc2cnn(-c3cccc(-c4cccc(-n5ncc(C(=O)O)c5C5CC5)c4)c3)c21` (stereo not shown) [Example 205, 5-Cyclopropyl-1-(3′-(6-methyl-6-propyl-5,6-dihydrocyclopenta[c]pyrazol-1(4H)-yl)-[1,1′-biphenyl]-3-yl)-1H-pyrazole-4-carboxylic Acid], for which the IC50 in experiment [1] and in experiment [2] was 100 to 1000 nM throughout.
For `CCC1CCC(COc2cccc(-c3cccc(-n4ncc(C(=O)O)c4[C@@H]4C[C@H]4c4cn(C)nn4)c3)c2)CC1` (mixture of isomers) [Example 150, 1-(3′-((4-Ethylcyclohexyl)methoxy)-[1,1′-biphenyl]-3-yl)-5-((1,2-trans)-2-(1-methyl-1H-1,2,3-triazol-4-yl)cyclopropyl)-1H-pyrazole-4-carboxylic acid], the IC50 in experiment [1] and in experiment [2] was 100 to 1000 nM each time.
In the case of `Cn1cc([C@@H]2C[C@H]2c2c(C(=O)O)cnn2-c2cccc(-c3cccc(OCC4CCC(F)(F)CC4)c3)c2)nn1` (racemic) [Example 145, 1-(3′-((4,4-Difluorocyclohexyl)methoxy)-[1,1′-biphenyl]-3-yl)-5-((1,2-trans)-2-(1-methyl-1H-1,2,3-triazol-4-yl)cyclopropyl)-1H-pyrazole-4-carboxylic acid], the IC50 in experiment [1] fell in the range of 100 to 1000 nM; in experiment [2], 10 to 100 nM.
For `Cn1cc(C2CC2c2c(C(=O)O)cnn2-c2cccc(-c3cccc(C(=O)C4CCCCC4)c3)c2)nn1` (stereo not shown) [Example 243, 1-(3′-(Cyclohexanecarbonyl)-[1,1′-biphenyl]-3-yl)-5-(2-(1-methyl-1H-1,2,3-triazol-4-yl)cyclopropyl)-1H-pyrazole-4-carboxylic Acid], in that order: 100 to 1000 nM and 10 to 100 nM.
For `Cn1cc([C@@H]2C[C@H]2c2c(C(=O)O)cnn2-c2cccc(-c3cncc(OCC4CCCCC4)c3)c2)nn1` (racemic) [Example 246, 1-(3-(5-(Cyclohexylmethoxy)pyridin-3-yl)phenyl)-5-(trans-2-(1-methyl-1H-1,2,3-triazol-4-yl)cyclopropyl)-1H-pyrazole-4-carboxylic Acid] the same measures were 1000 to 10000 nM and 100 to 1000 nM.
For `C[C@@H]1CCC[C@H](C)N1C(=O)c1cccc(-c2cccc(-n3ncc(C(=O)O)c3C3CC3)c2)c1F` [Example 21, 5-Cyclopropyl-1-(3-{3-[(2R,6S)-2,6-dimethylpiperidine-1-carbonyl]-2-fluorophenyl}phenyl)-1H-pyrazole-4-carboxylic Acid], in that order: 100 to 1000 nM and 10 to 100 nM.
Consider `Cn1cc([C@H]2C[C@@H]2c2c(C(=O)O)cnn2-c2cccc(-c3cccc(OCc4cccc(-c5ccccc5)c4)c3)c2)nn1` (racemic) [Example 238, 1-(3′-([1,1′-Biphenyl]-3-ylmethoxy)-[1,1′-biphenyl]-3-yl)-5-((1,2- trans)-2-(1-methyl-1H-1,2,3-triazol-4-yl)cyclopropyl)-1H-pyrazole-4-carboxylic acid], for which the IC50 lay in the range of 1000 to 10000 nM in experiment [1] and 100 to 1000 nM in experiment [2].
For `CC(Oc1cccc(-c2cccc(-n3ncc(C(=O)O)c3[C@H]3C[C@@H]3c3cn(C)nn3)c2)c1)C1CCCCCC1` (mixture of isomers) [Example 230, 1-(3′-(1-Cycloheptylethoxy)-[1,1′-biphenyl]-3-yl)-5-((1,2-trans)-2-(1-methyl-1H-1,2,3-triazol-4-yl)cyclopropyl)-1H-pyrazole-4-carboxylic acid], in that order: 10 to 100 nM and 10 to 100 nM.
For `Cn1cc(C2CC2c2c(C(=O)O)cnn2-c2cccc(-c3cccc(OC4CCCN(C(=O)OC(C)(C)C)C4)c3)c2)nn1` (stereo not shown) [Example 232, 1-(3′-((1-(tert-Butoxycarbonyl)piperidin-3-yl)oxy)-[1,1′-biphenyl]-3-yl)-5-(2-(1-methyl-1H-1,2,3-triazol-4-yl)cyclopropyl)-1H-pyrazole-4-carboxylic acid] the same measures were 10 to 100 nM and 100 to 1000 nM.
For `Cn1cc(C2CC2c2c(C(=O)O)cnn2-c2cccc(-c3cccc(OCc4ccccc4)c3)c2)nn1` (stereo not shown) [Example 221], in that order: 100 to 1000 nM and 100 to 1000 nM.
For `O=C(O)c1cnn(-c2cccc(-c3cccc(C(=O)N(CC4CCCC4)CC4CC4)c3F)c2)c1C1CC1` [Example 14, 1-(3-{3-[(Cyclopentylmethyl)(cyclopropylmethyl)carbamoyl]-2-fluorophenyl}phenyl)-5-cyclopropyl-1H-pyrazole-4-carboxylic Acid], the IC50 was 100 to 1000 nM in experiment [1] and 10 to 100 nM in experiment [2].
For the compound `CCCC1CCCCN1C(=O)c1cccc(-c2cccc(-n3ncc(C(=O)O)c3C3CC3c3cccnn3)c2)c1` (stereo not shown) [Example 41, 1-[3′-(2-Propyl-piperidine-1-carbonyl)-biphenyl-3-yl]-5-(2-pyridazin-3-yl-cyclopropyl)-1H-pyrazole-4-carboxylic Acid], the IC50 in experiment [1] and in experiment [2] was 10 to 100 nM in each case.
With `CC(Oc1cccc(-c2cccc(-n3ncc(C(=O)O)c3C3CC3c3cn(C)nn3)c2)c1)C1CCCC1` (stereo not shown) [Example 228, 1-(3′-(1-Cyclopentylethoxy)-[1,1′-biphenyl]-3-yl)-5-(2-(1-methyl-1H-1,2,3-triazol-4-yl)cyclopropyl)-1H-pyrazole-4-carboxylic acid], the values for the IC50 in experiment [1] and in experiment [2] were 100 to 1000 nM and 10 to 100 nM, respectively.
For `Cn1cc(C2CC2c2c(C(=O)O)cnn2-c2cccc(-c3cccc(-n4ncc5c4C(C)(C)CC5)c3)c2)nn1` (stereo not shown) [Example 212, 1-(3′-(6,6-Dimethyl-5,6-dihydrocyclopenta[c]pyrazol-1(4H)-yl)-[1,1′-biphenyl]-3-yl)-5-(2-(1-methyl-1H-1,2,3-triazol-4-yl)cyclopropyl)-1H-pyrazole-4-carboxylic Acid], in that order: 10 to 100 nM and 10 to 100 nM.
Regarding `Cn1cc([C@@H]2C[C@H]2c2c(C(=O)O)cnn2-c2cccc(-c3cccc(OCC4CCCCC4)c3F)c2)nn1` (racemic) [Example 152, 1-(3′-(Cyclohexylmethoxy)-2′-fluoro-[1,1′-biphenyl]-3-yl)-5-((1,2-trans)-2-(1-methyl-1H-1,2,3-triazol-4-yl)cyclopropyl)-1H-pyrazole-4-carboxylic Acid], the IC50 in experiment [1] fell in the range of 100 to 1000 nM; in experiment [2], 10 to 100 nM.
For `CC(Oc1cccc(-c2cccc(-n3ncc(C(=O)O)c3[C@H]3C[C@@H]3c3cn(C)nn3)c2)c1)c1ccc(-c2ccccc2)cc1` (mixture of isomers) [Example 240, 1-(3′-(1-([1,1′-Biphenyl]-4-yl)ethoxy)-[1,1′-biphenyl]-3-yl)-5-((1,2- trans)-2-(1-methyl-1H-1,2,3-triazol-4-yl)cyclopropyl)-1H-pyrazole-4-carboxylic acid], in that order: 1000 to 10000 nM and 100 to 1000 nM.
